{
  "source": "patent US20060257448A1",
  "about": "“Resorbable polymer composition, implant and method of making implant” (The University of Zurich, priority 2005, published 2006)",
  "data": [
    {"test_system": "MC3T3-E1 cells", "assay": "Alkaline phosphatase activity (maturation) of MC3T3-E1 preosteoblastic cells", "type": "cell-based", "conditions": "increasing amounts of solvent (triacetin 0 to 6 mM); determined after 6 days; FIG. 2", "protocol": "To compare the effect of various plasticizer regarding their osteogenetic effect to that of triacetin, MC3T3-E1 cells were grown in an alpha-modified Minimum Essential Medium (Life Technologies, Inc., Grand Island, N.Y.) containing 10% fetal calf serum (Life Technologies, Inc.), 50 μg/ml gentamycin, and 50 μg/ml ascorbic acid. To examine the action of triacetin on this cell line, 1×10^5 cells per well were plated in 6-well plates and triacetin subsequently added. Medium exchange was performed after 3 days and alkaline phosphatase (ALP) was determined according to Lowry, O. et al. [J. Biol. Chem. 207 (1954) 19-37]: p-nitrophenol liberated was converted to p-nitrophenylate by adding 400 μl of 1 M NaOH, which was quantitated by measuring the absorbance at 410 nm (epsilon=17500/mol×cm). Alkaline phosphatase activity was normalized to total protein and expressed as nmol nitrophenylate generated per min per mg protein.\nMC3T3-E1 cells were treated with increasing amounts of different solvents and the effect on the maturation of MC3T3-E1 cells determined after 6 days by alkaline phosphatase activity.", "values": [
      {"smiles": "CN(C)C=O", "note": "[N,N-dimethylformamide]", "Maturation of MC3T3-E1 cells determined by alkaline phosphatase activity": "no positive effect"},
      {"smiles": "C[S+](C)[O-]", "note": "[dimethylsulfoxide]", "Maturation of MC3T3-E1 cells determined by alkaline phosphatase activity": "no positive effect"},
      {"smiles": "CCO", "note": "[ethanol]", "Maturation of MC3T3-E1 cells determined by alkaline phosphatase activity": "no positive effect"},
      {"smiles": "CO", "note": "[methanol]", "Maturation of MC3T3-E1 cells determined by alkaline phosphatase activity": "no positive effect"},
      {"smiles": "CC(=O)OCC(COC(C)=O)OC(C)=O", "note": "[triacetin, 1,2,3-Triacetoxypropane]", "Maturation of MC3T3-E1 cells determined by alkaline phosphatase activity": "increases in a concentration dependent manner"}
    ]}
  ]
}
